The conditions of the data set: for aqueous solubility: pH 6.8.

Converted amounts (≈) assume the structure as drawn.

Regarding `Cc1ccc(Nc2ccnc(Nc3ccc(C)cc3)n2)cc1`, the MDR1-MDCK efflux ratio was 0.2; the intrinsic clearance, human liver microsomes was found to be 85.2 mL/min/kg; the intrinsic clearance, rat liver microsomes was found to be 477 mL/min/kg.

Turning to `O=C(NCc1cccnc1)c1cnn(-c2ccccc2)c1`, the MDR1-MDCK efflux ratio turned out to be 2.46; the intrinsic clearance, human liver microsomes is not above 4.74 mL/min/kg; the intrinsic clearance, rat liver microsomes amounted to 26.3 mL/min/kg; the aqueous solubility was 38.3 µg/mL (≈ 138 µM).

For the compound `N#Cc1c(O)c(Cl)c(Cl)c(C#N)c1Cl`, the aqueous solubility was 31.3 µg/mL (≈ 126 µM).

The compound `CCNC(=O)c1noc(-c2cc(C(C)C)c(O)cc2O)c1-c1ccc(CN2CCOCC2)cc1` yielded an intrinsic clearance, human liver microsomes of 38.8 mL/min/kg and an intrinsic clearance, rat liver microsomes of 351 mL/min/kg.

For the compound `CCNC(=O)C1CN(c2cccc(C#N)n2)C1`, the MDR1-MDCK efflux ratio was found to be 2.07; the intrinsic clearance, human liver microsomes was not above 4.74 mL/min/kg; the intrinsic clearance, rat liver microsomes was not above 10.7 mL/min/kg; the aqueous solubility was 42.9 µg/mL (≈ 186 µM).

`CN(C(=O)[C@@H](N)Cc1ccccc1)c1ccccc1`: the intrinsic clearance, human liver microsomes was not above 4.74 mL/min/kg and the intrinsic clearance, rat liver microsomes was found to be 392 mL/min/kg.

Take `C[C@@H](Oc1cc(-c2cnn(C3CCNCC3)c2)cnc1N)c1c(Cl)ccc(F)c1Cl`: the intrinsic clearance, human liver microsomes was determined as 23.2 mL/min/kg; the intrinsic clearance, rat liver microsomes worked out at 106 mL/min/kg; the aqueous solubility is 32.5 µg/mL (≈ 72.2 µM).

Take `CCc1ccccc1NC(=O)c1cc(C)nc2onc(C)c12`: the MDR1-MDCK efflux ratio came to 0.67; the intrinsic clearance, human liver microsomes is 51.8 mL/min/kg; the intrinsic clearance, rat liver microsomes was 53.1 mL/min/kg; the aqueous solubility came to 13.3 µg/mL (≈ 45 µM).

As for `c1ccc(-n2cnc3cc(NCc4ccccn4)ccc32)cc1`, the intrinsic clearance, human liver microsomes is 22.6 mL/min/kg; the intrinsic clearance, rat liver microsomes was found to be 3200 mL/min/kg; the aqueous solubility was found to be 18.4 µg/mL (≈ 61.3 µM).

For `COc1cc2c(cc1OC)CN(C(=O)C1CCCN(C(=O)c3ccc(Cl)cc3)C1)CC2` (stereo not given), the MDR1-MDCK efflux ratio is 10.1.

On to `Brc1ccc(-c2nnc(Cn3cnc4ccccc43)o2)o1`, for which the MDR1-MDCK efflux ratio was 0.976; the intrinsic clearance, human liver microsomes was not above 4.74 mL/min/kg; the intrinsic clearance, rat liver microsomes stood at 41.1 mL/min/kg; the aqueous solubility worked out at 62.7 µg/mL (≈ 182 µM).

Turning to `CCOc1ccc(CC(=O)NCCn2cccnc2=O)cc1`, the MDR1-MDCK efflux ratio is 18; the intrinsic clearance, human liver microsomes was not above 4.74 mL/min/kg; the intrinsic clearance, rat liver microsomes stood at 11.1 mL/min/kg; the aqueous solubility was found to be 68.5 µg/mL (≈ 227 µM).

Turning to `CC(C)NCC(O)COc1cccc2ccccc12` (stereo not given), the fraction unbound, rat plasma came to 0.223.

With `CN1CCC(Cc2cccc(-c3nccs3)n2)C1` (stereo not given), the MDR1-MDCK efflux ratio amounted to 1.16; the intrinsic clearance, human liver microsomes was 43 mL/min/kg; the intrinsic clearance, rat liver microsomes came to 2030 mL/min/kg.

Consider `COc1ccc(C(=O)N2CCN(C(=O)/C=C/c3ccc(Br)cc3)CC2)cc1`, for which the MDR1-MDCK efflux ratio was determined as 0.858.

Take `Cc1noc(NCc2cccc(-c3cccnc3)c2)n1`: the MDR1-MDCK efflux ratio worked out at 0.752; the intrinsic clearance, human liver microsomes is 20.5 mL/min/kg; the intrinsic clearance, rat liver microsomes came to 157 mL/min/kg; the aqueous solubility was 34.6 µg/mL (≈ 130 µM).

Turning to `CN(C)c1nc(N)nc(Sc2ccccc2)n1`, the MDR1-MDCK efflux ratio came to 0.746; the intrinsic clearance, human liver microsomes is 108 mL/min/kg; the intrinsic clearance, rat liver microsomes came out at 642 mL/min/kg; the aqueous solubility worked out at 3.11 µg/mL (≈ 12.6 µM).

In the case of `COc1cccc(OCCCN)c1-c1cc(Nc2cnc(C#N)cn2)n[nH]1`, the MDR1-MDCK efflux ratio came to 17.5; the intrinsic clearance, human liver microsomes was not above 4.74 mL/min/kg; the intrinsic clearance, rat liver microsomes turned out to be 512 mL/min/kg; the aqueous solubility is 39.1 µg/mL (≈ 107 µM).

On to `CCc1nnc(Nc2cccc(C3CCCN(CC(=O)N4CCCC4)C3)n2)s1` (stereo not given), for which the MDR1-MDCK efflux ratio came out at 35; the intrinsic clearance, human liver microsomes stood at 48.7 mL/min/kg; the intrinsic clearance, rat liver microsomes stood at 186 mL/min/kg; the aqueous solubility is 53.5 µg/mL (≈ 134 µM).

Regarding `Cc1ncsc1CN1CCCN(c2nc3ccccc3[nH]2)CC1`, the MDR1-MDCK efflux ratio stood at 50.4; the intrinsic clearance, human liver microsomes is 36.5 mL/min/kg; the intrinsic clearance, rat liver microsomes was found to be 518 mL/min/kg; the aqueous solubility is 51.9 µg/mL (≈ 158 µM).

The values above are taken from the Biogen ADME set (Fang et al. 2023).
